Results published in patent publication US11066396B2 (priority 2016, dated 2021).

How the values were obtained:
HDAC5 = HDAC5 (Homo sapiens (Human), UniProt Q9UQL6); conditions: read-out: HDAC5 IC50
HDAC1 = HDAC1 (Homo sapiens (Human), UniProt Q13547); conditions: read-out: HDAC1 IC50
HDAC1, sequence (Q13547 whole entry): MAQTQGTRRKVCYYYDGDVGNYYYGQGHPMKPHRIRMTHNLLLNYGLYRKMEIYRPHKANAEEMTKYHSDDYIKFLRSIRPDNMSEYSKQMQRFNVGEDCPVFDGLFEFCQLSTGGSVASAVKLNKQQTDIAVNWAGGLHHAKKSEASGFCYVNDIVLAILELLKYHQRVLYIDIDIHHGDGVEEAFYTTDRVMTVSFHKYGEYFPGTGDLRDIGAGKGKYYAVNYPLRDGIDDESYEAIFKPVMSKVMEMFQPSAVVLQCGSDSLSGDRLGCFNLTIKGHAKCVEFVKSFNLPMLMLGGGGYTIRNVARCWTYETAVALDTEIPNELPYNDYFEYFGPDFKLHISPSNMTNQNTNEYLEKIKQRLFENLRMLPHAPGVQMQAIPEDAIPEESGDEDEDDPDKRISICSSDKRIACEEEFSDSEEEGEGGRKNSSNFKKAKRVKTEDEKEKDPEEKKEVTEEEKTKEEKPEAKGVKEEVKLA

HDAC5, sequence (Q9UQL6 656-1122): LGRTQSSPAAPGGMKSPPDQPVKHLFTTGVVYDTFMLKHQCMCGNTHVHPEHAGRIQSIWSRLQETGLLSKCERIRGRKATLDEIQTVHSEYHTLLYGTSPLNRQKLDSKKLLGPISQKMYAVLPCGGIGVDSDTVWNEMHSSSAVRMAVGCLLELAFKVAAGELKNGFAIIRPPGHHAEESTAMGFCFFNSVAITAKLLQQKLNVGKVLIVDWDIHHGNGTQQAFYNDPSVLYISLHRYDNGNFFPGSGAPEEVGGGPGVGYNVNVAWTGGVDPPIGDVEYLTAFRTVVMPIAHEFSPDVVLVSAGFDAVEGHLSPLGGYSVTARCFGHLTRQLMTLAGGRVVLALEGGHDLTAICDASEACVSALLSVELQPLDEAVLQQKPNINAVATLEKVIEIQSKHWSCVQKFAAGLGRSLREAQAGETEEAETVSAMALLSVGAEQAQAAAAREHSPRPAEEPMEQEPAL

Compound | IC50 (HDAC5) | IC50 (HDAC1)
Cc1cnc(COc2nccc(-c3noc(C(F)(F)F)n3)c2Cl)cn1 [Example 290, 2-[({3-chloro-4-[5-(trifluoromethyl)-1,2,4-oxadiazol-3-yl]pyridin-2-yl}oxy)methyl]-5-methylpyrazine] | 660 nM | 8100 nM
Fc1cccnc1COc1nccc(-c2noc(C(F)(F)F)n2)c1Cl [Example 291, 3-chloro-2-[(3-fluoropyridin-2-yl)methoxy]-4-[5-(trifluoromethyl)-1,2,4-oxadiazol-3-yl]pyridine] | 190 nM | 9300 nM
Cc1ncc(COc2nccc(-c3noc(C(F)(F)F)n3)c2Cl)c(C)n1 [Example 292, 5-[({3-chloro-4-[5-(trifluoromethyl)-1,2,4-oxadiazol-3-yl]pyridin-2-yl}oxy)methyl]-2,4-dimethylpyrimidine] | 540 nM | 6500 nM
Cn1cc(COc2nccc(-c3noc(C(F)(F)F)n3)c2Cl)nn1 [Example 293, 3-chloro-2-[(1-methyl-1H-1,2,3-triazol-4-yl)methoxy]-4-[5-(trifluoromethyl)-1,2,4-oxadiazol-3-yl]pyridine] | 510 nM | 4500 nM
FC(F)(F)c1nc(-c2ccnc(OCc3nccnc3Cl)c2Cl)no1 [Example 294, 2-chloro-3-[({3-chloro-4-[5-(trifluoromethyl)-1,2,4-oxadiazol-3-yl]pyridin-2-yl}oxy)methyl]pyrazine] | 410 nM | 12000 nM
FC(F)(F)c1nc(-c2ccnc(OCc3ncccc3Cl)c2Cl)no1 [Example 295, 3-chloro-2-[(3-chloropyridin-2-yl)methoxy]-4-[5-(trifluoromethyl)-1,2,4-oxadiazol-3-yl]pyridine] | 500 nM | 17000 nM
FC(F)(F)c1nc(-c2ccc(COc3nc(C4CC4)no3)nc2)no1 [Example 296, 2-{[(3-cyclopropyl-1,2,4-oxadiazol-5-yl)oxy]methyl}-5-[5-(trifluoromethyl)-1,2,4-oxadiazol-3-yl]pyridine] | 49 nM | 3700 nM
FC(F)(F)c1nc(-c2ccc(COc3cccc4[nH]nnc34)nc2)no1 [Example 297, 4-({5-[5-(trifluoromethyl)-1,2,4-oxadiazol-3-yl]pyridin-2-yl}methoxy)-1H-benzotriazole] | 51 nM | 310 nM
FC(F)(F)c1nc(-c2ccc(COc3nncc4ccccc34)nc2)no1 [Example 298, 1-({5-[5-(trifluoromethyl)-1,2,4-oxadiazol-3-yl]pyridin-2-yl}methoxy)phthalazine] | 290 nM | 1000 nM
O=C1NCCc2c(OCc3ccc(-c4noc(C(F)(F)F)n4)cn3)cccc21 [Example 299, 5-({5-[5-(trifluoromethyl)-1,2,4-oxadiazol-3-yl]pyridin-2-yl}methoxy)-3,4-dihydroisoquinolin-1(2H)-one] | 800 nM | 1300 nM
O=c1ccc2cnccc2n1Cc1ccc(-c2noc(C(F)(F)F)n2)cn1 [Example 301, 1-({5-[5-(trifluoromethyl)-1,2,4-oxadiazol-3-yl]pyridin-2-yl}methyl)-1,6-naphthyridin-2(1H)-one] | 37 nM | 280 nM
FC(F)(F)c1nc(-c2ccc(COc3nccc4nccn34)nc2)no1 [Example 303, 5-({5-[5-(trifluoromethyl)-1,2,4-oxadiazol-3-yl]pyridin-2-yl}methoxy)imidazo[1,2-c]pyrimidine] | 170 nM | 990 nM
Cn1c(OCc2ccc(-c3noc(C(F)(F)F)n3)cn2)nc2cccnc21 [Example 304, 3-methyl-2-({5-[5-(trifluoromethyl)-1,2,4-oxadiazol-3-yl]pyridin-2-yl}methoxy)-3H-imidazo[4,5-b]pyridine] | 79 nM | 250 nM
FC(F)(F)c1nc(-c2ccc(COc3ccc4ncnn4c3)nc2)no1 [Example 305, 6-({5-[5-(trifluoromethyl)-1,2,4-oxadiazol-3-yl]pyridin-2-yl}methoxy)[1,2,4]triazolo[1,5-a]pyridine] | 1700 nM | 2400 nM
